A short description of data set [1]: in vivo. Particulars: Yorkshire, pig, po, 20 mg/kg.
Method: A total of ten, two-month old Yorkshire piglets, approximately 20 kg each, were used for this study. All 10 animals were treated with oral amoxicillin twice a day for a total of 7 days, and one cohort of 5 animals was also treated with oral SYN-004 four times a day for a total of 9 days. The SYN-004 treatment was started the day before amoxicillin treatment and continued for a day after amoxicillin was stopped (FIG. 1).
On Study Day 0, Group 2 (Pigs 6-10) received one size 0 capsule of SYN-004; containing 75 mg of SYN-004, orally, four times a day at 7 am, 12 pm, 5 pm, and 10 pm for a total of 9 days. Pigs were fed 3 times a day, after SYN-004 dosing at 7 am, after SYN-004 dosing at 12 pm, and after SYN-004 dosing at 5 pm. Beginning on Study Day 1, Groups 1 and 2 (Pigs 1-10) received oral amoxicillin (fruit flavored oral suspension, Sandoz, NDC: 0781-6157-46, Lot #EY9130; 20 mg/kg) twice a day at 7 am and at 5 pm, for a total of 7 days. Animals received the amoxicillin first, followed by the SYN-004, then feeding.
On Day 2, after 4 amoxicillin doses, animals were bled and serum collected. Blood was collected aseptically from the vena cava from anesthetized animals. Three blood draws were performed, at 1 hr, 3 hrs, and 8 hrs after amoxicillin administration. A Telazol cocktail was administered intramuscularly at a minimal dose (1 mL or less per 50 lbs) to achieve light anesthesia/sedations. At each timepoint, approximately 9 mL of blood was collected into a serum separator vacutainer tube.
Amoxicillin levels in the pig serum were quantified using a modification of a validated HPLC-based assay (Du et al., 2005). […] The assay was linear over a range of 1 to 30 ug/mL (R=0.999). Interday coefficients of variation for the low (1.5 ug/mL) and high (20 ug/mL) quality control samples were 3.9% and 4.9% respectively. Interday coefficients of variation were 3.8% and 2.8%, respectively. Peak height was used to integrate all the peaks. Sigma Plot was used to calculate drug concentrations and a −1 weighting factor was used. […]
Data set [2] relates to intestinal microbiome. Nature of the data set: Fecal microbiome whole genome shotgun sequencing in piglets given oral amoxicillin with or without SYN-004 (Example 1). The format is in vivo, Yorkshire piglets. Particulars: Day -7 to Day 9, FIGS. 3 and 4.
Method: A study was performed using normal piglets to determine if SYN-004, when delivered orally with oral amoxicillin, functions to protect the microbiome from amoxicillin-induced dysbiosis.
A total of ten, two-month old Yorkshire piglets, approximately 20 kg each, were used for this study. All 10 animals were treated with oral amoxicillin twice a day for a total of 7 days, and one cohort of 5 animals was also treated with oral SYN-004 four times a day for a total of 9 days.
Two pre-treatment fecal samples were obtained, the first 4 days after the animals arrived at the animal treatment facility (Day −7), and the second 7 days after arrival (Day −4). An additional 3 fecal samples were collected at Day 4, Day 8, and Day 9. […]
DNA was isolated from the fecal samples and subjected to whole genome shotgun sequencing using an Illumina HiSeq system with a target of 20 million 100 bp single reads per sample. […]
The median similarity based on the relative bacterial strain abundance was calculated.
A statistical analysis was performed to determine the probability that the microbiomes before and after antibiotic treatment remained the same or were different. The microbiome sequence data were analyzed using a parameterization of the Dirichlet-Multinomial distribution (La Rosa et al., 2012) to perform a Likelihood Ratio Test.

The values that follow come from patent publication US9744221B2, “Method and compositions for inhibiting or preventing adverse effects of oral antibiotics” (Synthetic Biologics, Inc., priority 2014, dated 2017).

In data set [1], `CC1(C)S[C@@H]2[C@H](NC(=O)[C@H](N)c3ccc(O)cc3)C(=O)N2[C@H]1C(=O)O` [amoxicillin, Amoxicillin] had a concentration at 1 h of 8900 ± 800 ng/mL, a concentration at 3 h of 3900 ± 300 ng/mL and a concentration at 8 h of 1500 ± 300 ng/mL. Besides, the “diversity of the microbiome (median percent similarity of strain relative abundance)” value in data set [2] is recorded as “continued to lose diversity throughout the duration of the study”.
